Assay results taken from ChEMBL document CHEMBL6109129, “Discovery of Conformationally Constrained Dihydro Benzo-Indole Derivatives as Metallo-β-Lactamase Inhibitors to Tackle Multidrug-Resistant Bacterial Infections” (J Med Chem, 2025).
Calls of active or inactive are those of the source. The rule behind the calls is not given here.

How the values were obtained:
Klebsiella pneumoniae [1] = assay: Synergistic antibacterial activity against Klebsiella pneumoniae ATCC BAA 2146 expressing NDM-1 measured after 16 to 18 hrs in presence of imipenem by microbial dilution method; assay type: functional, organism-based; conditions: time 16-18 hrs
[2] = biological target: Metallo-beta-lactamase type 2 (Bacteria) (UniProt C7C422); assay: Induction of thermal stabilization of NDM-1 (unknown origin) assessed as melting temperature at 50 uM by differential scanning fluorimetry analysis
Sequence of Metallo-beta-lactamase type 2 (Bacteria) (C7C422 whole entry): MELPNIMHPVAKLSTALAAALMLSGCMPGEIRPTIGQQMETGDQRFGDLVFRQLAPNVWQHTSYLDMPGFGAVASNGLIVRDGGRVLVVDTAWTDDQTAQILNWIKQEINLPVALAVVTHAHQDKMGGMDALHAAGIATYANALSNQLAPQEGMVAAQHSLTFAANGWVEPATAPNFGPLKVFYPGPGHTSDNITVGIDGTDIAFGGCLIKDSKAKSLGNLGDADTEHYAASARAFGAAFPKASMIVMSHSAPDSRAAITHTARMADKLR

[3] = biological target: Metallo-beta-lactamase type 2 (Bacteria) (UniProt C7C422); assay: Induction of thermal stabilization of NDM-1 (unknown origin) assessed as melting temperature at 12.5 uM by differential scanning fluorimetry analysis
[4] = biological target: Metallo-beta-lactamase type 2 (Bacteria) (UniProt C7C422); assay: Induction of thermal stabilization of NDM-1 (unknown origin) assessed as melting temperature at 6.25 uM by differential scanning fluorimetry analysis
Klebsiella pneumoniae [5] = assay: Synergistic antibacterial activity against carbapenem-resistant Klebsiella pneumoniae BAA-2473 assessed as reduction in microbial growth at 16 ug/ml measured after 16 to 18 hrs in presence of meropenem by microbial dilution method; assay type: functional; conditions: dose 16 µg/ml, time 16-18 hrs
[6] = tested on: Klebsiella pneumoniae subsp. pneumoniae; assay: Synergistic antibacterial activity against carbapenem-resistant Klebsiella pneumoniae subsp. pneumoniae BAA-2472 assessed as reduction in microbial growth at 8 ug/ml measured after 16 to 18 hrs in presence of meropenem by microbial dilution method; assay type: functional; conditions: dose 8 µg/ml, time 16-18 hrs
[7] = tested on: Klebsiella pneumoniae subsp. pneumoniae; assay: Synergistic antibacterial activity against carbapenem-resistant Klebsiella pneumoniae subsp. pneumoniae BAA-2470 assessed as reduction in microbial growth at 0.5 ug/ml measured after 16 to 18 hrs in presence of meropenem by microbial dilution method; assay type: functional; conditions: dose 0.5 µg/ml, time 16-18 hrs
[8] = tested on: Klebsiella pneumoniae subsp. pneumoniae; assay: Synergistic antibacterial activity against carbapenem-resistant Klebsiella pneumoniae subsp. pneumoniae BAA-2472 assessed as reduction in microbial growth at 8 ug/ml measured after 16 to 18 hrs in presence of imipenem by microbial dilution method; assay type: functional; conditions: dose 8 µg/ml, time 16-18 hrs
Escherichia coli [9] = assay: Synergistic antibacterial activity against carbapenem-resistant Escherichia coli BAA-2471 assessed as reduction in microbial growth at 0.5 ug/ml measured after 16 to 18 hrs in presence of imipenem by microbial dilution method; assay type: functional; conditions: dose 0.5 µg/ml, time 16-18 hrs
Escherichia coli [10] = assay: Synergistic antibacterial activity against carbapenem-resistant Escherichia coli BAA-2471 assessed as reduction in microbial growth at 16 ug/ml measured after 16 to 18 hrs in presence of imipenem by microbial dilution method; assay type: functional; conditions: dose 16 µg/ml, time 16-18 hrs
[11] = tested on: Klebsiella pneumoniae subsp. pneumoniae; assay: Synergistic antibacterial activity against carbapenem-resistant Klebsiella pneumoniae subsp. pneumoniae BAA-2470 assessed as reduction in microbial growth at 0.5 ug/ml measured after 16 to 18 hrs in presence of imipenem by microbial dilution method; assay type: functional; conditions: dose 0.5 µg/ml, time 16-18 hrs
[12] = tested on: Klebsiella pneumoniae subsp. pneumoniae; assay: Synergistic antibacterial activity against carbapenem-resistant Klebsiella pneumoniae subsp. pneumoniae BAA-2470 assessed as reduction in microbial growth at 8 ug/ml measured after 16 to 18 hrs in presence of imipenem by microbial dilution method; assay type: functional; conditions: dose 8 µg/ml, time 16-18 hrs
Escherichia coli [13] = assay: Synergistic antibacterial activity against carbapenem-resistant Escherichia coli BAA-2469 assessed as reduction in microbial growth at 16 ug/ml measured after 16 to 18 hrs in presence of imipenem by microbial dilution method; assay type: functional; conditions: dose 16 µg/ml, time 16-18 hrs
Enterobacter cloacae = assay: Synergistic antibacterial activity against carbapenem-resistant Enterobacter cloacae BAA-2468 assessed as reduction in microbial growth at 8 ug/ml measured after 16 to 18 hrs in presence of imipenem by microbial dilution method; assay type: functional; conditions: dose 8 µg/ml, time 16-18 hrs
Klebsiella pneumoniae [14] = assay: Synergistic antibacterial activity against carbapenem-resistant Klebsiella pneumoniae 571278 assessed as reduction in microbial growth at 16 ug/ml measured after 16 to 18 hrs in presence of meropenem by microbial dilution method; assay type: functional; conditions: dose 16 µg/ml, time 16-18 hrs
Escherichia coli [15] = assay: Synergistic antibacterial activity against carbapenem-resistant Escherichia coli 571307 assessed as reduction in microbial growth at 4 ug/ml measured after 16 to 18 hrs in presence of meropenem by microbial dilution method; assay type: functional; conditions: dose 4 µg/ml, time 16-18 hrs
Escherichia coli [16] = assay: Synergistic antibacterial activity against carbapenem-resistant Escherichia coli 571307 assessed as reduction in microbial growth at 16 ug/ml measured after 16 to 18 hrs in presence of meropenem by microbial dilution method; assay type: functional; conditions: dose 16 µg/ml, time 16-18 hrs
Escherichia coli [17] = assay: Synergistic antibacterial activity against carbapenem-resistant Escherichia coli 567975 assessed as reduction in microbial growth at 4 ug/ml measured after 16 to 18 hrs in presence of meropenem by microbial dilution method; assay type: functional; conditions: dose 4 µg/ml, time 16-18 hrs
Klebsiella pneumoniae [18] = assay: Synergistic antibacterial activity against carbapenem-resistant Klebsiella pneumoniae 538961 assessed as reduction in microbial growth at 4 ug/ml measured after 16 to 18 hrs in presence of meropenem by microbial dilution method; assay type: functional; conditions: dose 4 µg/ml, time 16-18 hrs
Klebsiella pneumoniae [19] = assay: Synergistic antibacterial activity against carbapenem-resistant Klebsiella pneumoniae 571278 assessed as reduction in microbial growth at 16 ug/ml measured after 16 to 18 hrs in presence of imipenem by microbial dilution method; assay type: functional; conditions: dose 16 µg/ml, time 16-18 hrs
Klebsiella pneumoniae [20] = assay: Synergistic antibacterial activity against carbapenem-resistant Klebsiella pneumoniae 565345 assessed as reduction in microbial growth at 4 ug/ml measured after 16 to 18 hrs in presence of imipenem by microbial dilution method; assay type: functional; conditions: dose 4 µg/ml, time 16-18 hrs
Escherichia coli [21] = assay: Synergistic antibacterial activity against carbapenem-resistant Escherichia coli 571307 assessed as reduction in microbial growth at 4 ug/ml measured after 16 to 18 hrs in presence of imipenem by microbial dilution method; assay type: functional; conditions: dose 4 µg/ml, time 16-18 hrs
Escherichia coli [22] = assay: Synergistic antibacterial activity against carbapenem-resistant Escherichia coli 567975 assessed as reduction in microbial growth at 4 ug/ml measured after 16 to 18 hrs in presence of imipenem by microbial dilution method; assay type: functional; conditions: dose 4 µg/ml, time 16-18 hrs
Klebsiella pneumoniae [23] = assay: Synergistic antibacterial activity against carbapenem-resistant Klebsiella pneumoniae 552439 assessed as reduction in microbial growth at 4 ug/ml measured after 16 to 18 hrs in presence of imipenem by microbial dilution method; assay type: functional; conditions: dose 4 µg/ml, time 16-18 hrs

## COc1ccc(Cl)cc1-c1c(C(=O)O)[nH]c2c1CCc1ccccc1-2
Klebsiella pneumoniae [1]
  Activity: Active
[2]
  Tm: 20 °C
[3]
  Tm: 18 °C
[4]
  ΔTm: 17 °C
Klebsiella pneumoniae [5]
  MIC: 8 µg/mL
[6]
  MIC: 64 µg/mL
[7]
  MIC: 32 µg/mL
[8]
  MIC: 32 µg/mL
Escherichia coli [9]
  MIC: 32 µg/mL
Escherichia coli [10]
  MIC: 8 µg/mL
[11]
  MIC: 16 µg/mL
[12]
  MIC: 2 µg/mL
Escherichia coli [13]
  MIC: 4 µg/mL
Enterobacter cloacae
  MIC: 64 µg/mL
Klebsiella pneumoniae [14]
  MIC: 16 µg/mL
Escherichia coli [15]
  MIC: 2 µg/mL
Escherichia coli [16]
  MIC: 0.5 µg/mL
Escherichia coli [17]
  MIC: 1 µg/mL
Klebsiella pneumoniae [18]
  MIC: 16 µg/mL
Klebsiella pneumoniae [19]
  MIC: 4 µg/mL
Klebsiella pneumoniae [20]
  MIC: 32 µg/mL
Escherichia coli [21]
  MIC: 4 µg/mL
Escherichia coli [22]
  MIC: 8 µg/mL
Klebsiella pneumoniae [23]
  MIC: 4 µg/mL
